US9688638B2, “Opioid agonists and uses thereof” (priority 2013, dated 2017)
Read-outs that look alike come from different tables or passages of the source.

How the values were obtained:
KOR = KOR (Homo sapiens (Human), UniProt P41145); test: cAMP accumulation assay, forskolin-stimulated CHO-K1 cells stably expressing KOR; format: cell-based
Procedure: (§1) Inhibition of cAMP accumulation by select compounds was measured in forskolin-stimulated CHO-K1 cells stably expressing KOR. CHO-K1 cells stably expressing KOR were harvested using Invitrogen Cell Dissociation Buffer, and then centrifuged at 1200 rpm for five minutes. The supernatant was aspirated and cells were resuspended in assay buffer to a density of 4×10^5 cells/mL. 25 μL of cells were added into a white half-area 96 well plate. Fourteen point serial dilutions of test compounds were carried out in assay buffer (PBS with 0.5 mM IBMX). Ketazocine was used as a positive control for each assay. 12.5 μL of compound was added to the cells in duplicate for each test concentration. The cells were then stimulated with 12.5 μL forskolin at a final concentration 20 μM. Cells were incubated for 45 minutes in a 37° C., 5% CO2 water jacketed incubator. CisBio HTRF cAMP assay reagent was used for cAMP quantitation. Two hours after substrate addition, signal at 665/615 nm was measured using the Perkin Elmer Victor X4 HTRF reader. Data analysis was done using GraphPad Prism, sigmoidal dose-response (variable slope) curve fitting.

[1] = biological target: recombinant human kappa (KOR) opioid receptor (Homo sapiens (Human), UniProt P41145); test: biochemical; format: binding
[2] = system: Swiss Albino or CD-1 male mice; test: Acetic acid writhing (AAW) analgesic assay; format: in vivo
Procedure: Approaches for evaluating analgesic activity of a compound of the present invention in vivo include a “writhing test.” Briefly, the compound to be tested is administered [by, for example, injection (e.g., subcutaneous injection)] to the mouse. Thereafter, a 0.5% acetic acid solution is administered (i.p.) to a mouse and the numbers of writhing responses are counted for twenty minutes. Antinociception is quantified as reduction in the number of writhes respective to vehicle.
An analgesic assay was used to determine whether a given compound can reduce and/or prevent visceral pain in mice. The assay utilizes Swiss Albino or CD-1 male mice (5-10 mice per group), each mouse being approximately 0.015-0.030 kg on the study day. Mice were treated according to standard protocols.
The animal was given an intraperitoneal (IP) injection of an irritant (acetic acid) that induces “writhing” which may include: contractions of the abdomen, twisting and turning of the trunk, arching of the back and the extension of the hindlimbs. Mice are given a single IP injection (0.1 mL/10 g bodyweight) of a 0.5% acetic acid solution. After the injection the animals were returned to their observation enclosure and their behavior was observed. Contractions were counted between 0 and 20 minutes after the injection. The animals were used once. In certain instances, the test articles were administered at multiple doses to determine a dose response curve.
Table 4 provides the results for certain compounds of the present invention that were administered subcutaneously. Table 5 provides the results for certain compounds of the present invention that were administered orally.

[3] = biological target: recombinant human mu (MOR) opioid receptor (Homo sapiens (Human), UniProt P35372); test: Radioligand competition binding assay, mu opioid receptor; conditions: [3H]Naloxone 4 nM, CHO-K1 membranes
Procedure: The binding affinities of certain compounds of the present invention were evaluated using radioligand binding assays in membranes prepared from CHO-K1 cells expressing recombinant human kappa (KOR) or mu (MOR) opioid receptors.
Competition binding experiments were conducted by incubating membrane protein to equilibrium in triplicate in the presence of a fixed concentration of radioligand and increasing concentrations of test compound for evaluation of binding to KOR or single concentration (10 μM) of test compound for evaluation of binding to MOR in 101 μL final volume. The radioligands used were specific for each receptor type, and the assay conditions are described in Table 1. Following incubations, the membranes were rapidly filtered through GF/B filter plate (presoaked with 0.5% polyethyleneimine), washed five times with cold 50 mM Tris-HCl, pH 7.5, and the bound radioactivity was then measured by liquid scintillation counting. Non-specific binding was measured in the presence of excess ligand; this value was subtracted from the total binding to yield the specific binding at each test concentration.
Ki (affinity of test compound) was obtained using the Cheng Prusoff correction using experimental Kd (affinity of radioligand) values that were previously determined under these assay conditions. For MOR binding, compounds were tested at one concentration, 10 μM, to evaluate its ability to inhibit specific radioligand binding. The values are expressed as percent inhibition of specific binding and greater than 50% inhibition of binding was considered to be significant.
With respect to determining MOR binding, an approach similar to one used for KOR binding was used.

Male Swiss Albino mice = test: Locomotor activity; format: in vivo; conditions: oral, 30 min pre-dose, 20 min observation
Procedure: The locomotor activity (LMA) model may be conducted to measure changes in activity following test article administration, which may be used to assess the CNS effects of the drug. In brief, at a predetermined time post-dose, rats are placed into observation chambers which are equipped with infrared photocells that can sense motion in the x, y, and z planes. Activity is measured as the number of photobeam breaks in a given plane (horizontal or vertical) or total distance traveled.
Male Swiss Albino mice were treated orally with vehicle (0.5% HPMC+0.1% Tween80), ketazocine, Compound 12 (0.3, 3 and 30 mg/kg) or Compound 20 (0.3, 3 and 30 mg/kg) thirty minutes prior to placement in the locomotor activity chamber. Total distance traveled was measured over the twenty minute observation time following placement in the locomotor activity chamber. Data are normalized relative to percent distance traveled in the vehicle group. The efficacy of Compound 12 (reported as percent distance traveled in comparison to vehicle) was 88.85%, 83.74% and 0.08% at 0.3, 3 and 30 mg/kg dosages, respectively, while the locomotor activity of Compound 20 (reported as percent distance traveled in comparison to vehicle) was 100%, 88% and 0.03% at 0.3, 3 and 30 mg/kg dosages, respectively.

MOR = MOR (Homo sapiens (Human), UniProt P35372); test: cAMP accumulation assay, forskolin-stimulated CHO-K1 cells stably expressing MOR; format: cell-based; conditions: inhibition of cAMP accumulation
Procedure: as §1
Using a similar approach, inhibition of cAMP accumulation by select compounds was also determined in forskolin-simulated CHO-K1 cells stably expressing MOR (wherein for this assay a density of 8×10^5 cells/mL was used and the positive control was DAMGO). Certain compounds of the present invention were tested as described above.

[4] = Mus musculus, sc, 20 min, subcutaneous, read-out: AAW % Efficacy
[5] = inhibition of cAMP accumulation, forskolin 20 μM, read-out: EC50 cAMP (nM)-KOR
[6] = Cheng Prusoff correction, [3H]Diprenorphine 1 nM, CHO-K1 membranes, read-out: Kappa receptor binding Ki
[7] = Mus musculus, po, 20 min, oral, read-out: AAW % Efficacy

SMILES	EC50 (KOR) [nM]	inhibition in vivo at 10 mg/kg [2, 4] [%]	Ki [3] [µM]	EC50 (KOR; [5]) [nM]	Ki [1, 6] [µM]	percent distance traveled in comparison to vehicle (Male Swiss Albino mice; 0.3 mg/kg) [%]	percent distance traveled in comparison to vehicle (Male Swiss Albino mice; 3 mg/kg) [%]	percent distance traveled in comparison to vehicle (Male Swiss Albino mice; 30 mg/kg) [%]	inhibition in vivo at 0.1 mg/kg [2, 7] [%]	inhibition in vivo at 1 mg/kg [2, 7] [%]	inhibition in vivo at 10 mg/kg [2, 7] [%]	EC50 (MOR) [nM]	also measured
COCCOCCOCCOc1ccc2c(c1)[C@]1(C)CCN(CC3CC3)[C@H](C2=O)[C@@H]1C [Compound 4, (2S,6R,11R)-3-(Cyclopropylmethyl)-8-{2-[2-(2-methoxyethoxy)ethoxy]ethoxy}-6,11-dimethyl-3,4,5,6-tetrahydro-2,6-methano-3-benzazocin-1(2H)-one]	9.35	39.7	–	–	–	–	–	–	–	–	–	–	IC50 [1]: 0.879 µM; Ki [1]: 0.203 µM; inhibition in vivo at 200 mg/kg ([2]; Mus musculus, po, 20 min, oral, 200 mg/kg, read-out: AAW % Efficacy): 3.8%; inhibition in vivo at 3 mg/kg ([2]; Mus musculus, sc, 20 min, subcutaneous, 3 mg/kg, read-out: AAW % Efficacy): 0%; inhibition in vivo at 30 mg/kg ([2]; Mus musculus, sc, 20 min, subcutaneous, 30 mg/kg, read-out: AAW % Efficacy): 100%
COCCOCCOCCOCCOCCNc1ccc(Nc2ccc3c(c2)[C@]2(C)CCN(CC4CC4)[C@H](C3=O)[C@@H]2C)cc1 [Compound 12, (2S,6R,11R)-8-((4-(2,5,8,11,14-pentaoxahexadecan-16-ylamino)phenyl)amino)-3-(cyclopropylmethyl)-6,11-dimethyl-3,4,5,6-tetrahydro-2,6-methanobenzo[d]azocin-1(2H)-one]	–	–	0.0585	7	0.005	88.85	83.74	0.08	22.5	56.9	97.2	189	AAW % Efficacy ([2]; subcutaneous, 3 mg/kg): 68.6%; AAW percent efficacy, outlier data removed ([2]; subcutaneous, 3 mg/kg, outlier data removed): 65.09; AAW % Efficacy ([2]; subcutaneous, 30 mg/kg): 100.0%
C[C@H]1[C@H]2C(=O)c3ccc(Nc4ccc(NCCOCCOCCOCCOCCOC(F)(F)F)cc4)cc3[C@]1(C)CCN2CC1CC1 [Compound 20, (2S,6R,11R)-3-(cyclopropylmethyl)-6,11-dimethyl-8-((4-((1,1,1-trifluoro-2,5,8,11,14-pentaoxahexadecan-16-yl)amino)phenyl)amino)-3,4,5,6-tetrahydro-2,6-methanobenzo[d]azocin-1(2H)-one]	–	88.1	0.0443	6.1	0.00286	100	88	0.03	–	–	–	128	inhibition in vivo at 0.3 mg/kg ([2]; Mus musculus, po, 20 min, oral, 0.3 mg/kg, read-out: AAW % Efficacy): 39.1%; inhibition in vivo at 3 mg/kg ([2]; Mus musculus, po, 20 min, oral, 3 mg/kg, read-out: AAW % Efficacy): 79.5%; inhibition in vivo at 30 mg/kg ([2]; Mus musculus, po, 20 min, oral, 30 mg/kg, read-out: AAW % Efficacy): 100%
C[C@H]1[C@H]2C(=O)c3ccc(NC(C)(C)CO)cc3[C@]1(C)CCN2CC1CC1 [Compound 23, (2S,6R,11R)-3-(Cyclopropylmethyl)-8-((1-hydroxy-2-methylpropan-2-yl)amino)-6,11-dimethyl-3,4,5,6-tetrahydro-2,6-methanobenzo[d]azocin-1(2H)-one]	–	–	7.96	395	1.05	–	–	–	–	–	–	3290	–
C[C@H]1[C@H]2C(=O)c3ccc(NC(CO)CO)cc3[C@]1(C)CCN2CC1CC1 [Compound 24, (2S,6R,11R)-3-(cyclopropylmethyl)-8-((1,3-dihydroxypropan-2-yl)amino)-6,11-dimethyl-3,4,5,6-tetrahydro-2,6-methanobenzo[d]azocin-1(2H)-one]	–	–	1.81	107	0.494	–	–	–	–	–	–	598	–
C[C@H]1[C@H]2C(=O)c3ccc(O)cc3[C@]1(C)CCN2CC1CC1 [Ketazocine, (2S,6R,11R)-3-(cyclopropylmethyl)-8-hydroxy-6,11-dimethyl-3,4,5,6-tetrahydro-2,6-methanobenzo[d]azocin-1(2H)-one, reference compound]	0.55	–	–	–	0.0013	–	–	–	12.8	34.5	58.9	–	IC50 [3]: 0.0084 µM; IC50 ([1]; [3H]Diprenorphine 1 nM, CHO-K1 membranes, read-out: Kappa receptor binding IC50): 0.0056 µM; inhibition in vivo at 100 mg/kg ([2]; Mus musculus, po, 20 min, oral, 100 mg/kg, read-out: AAW % Efficacy): 100%; inhibition in vivo at 0.01 mg/kg ([2]; Mus musculus, sc, 20 min, subcutaneous, 0.01 mg/kg, read-out: AAW % Efficacy): 10.6%; inhibition in vivo at 0.1 mg/kg [2, 4]: 50%; inhibition in vivo at 1 mg/kg [2, 4]: 100%
